From ChEMBL document CHEMBL1201862, “PubChem BioAssay data set” (2004)
Active and inactive are the calls of the source.

What was measured:
[1] = mitochondrial function rescue without frataxin homolog – Friedreich's ataxia, plus single-dose screen, dose response (AID 1465); format: functional;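 further: yeast depleted of Yfh1p frataxin homolog grown on glycerol needing respiration; WST-1 tetrazolium dye reduction as measure of cellular dehydrogenase metabolic activity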
Insulin-degrading enzyme [2] = target: T1, Insulin-degrading enzyme (Homo sapiens, UniProt P14735); assay: recombinant IDE activation, cell-free – biochemical, fluorescence polarization, counter-screen for IDE activator project, dose response (AID 588681)
T1 sequence (P14735 whole entry): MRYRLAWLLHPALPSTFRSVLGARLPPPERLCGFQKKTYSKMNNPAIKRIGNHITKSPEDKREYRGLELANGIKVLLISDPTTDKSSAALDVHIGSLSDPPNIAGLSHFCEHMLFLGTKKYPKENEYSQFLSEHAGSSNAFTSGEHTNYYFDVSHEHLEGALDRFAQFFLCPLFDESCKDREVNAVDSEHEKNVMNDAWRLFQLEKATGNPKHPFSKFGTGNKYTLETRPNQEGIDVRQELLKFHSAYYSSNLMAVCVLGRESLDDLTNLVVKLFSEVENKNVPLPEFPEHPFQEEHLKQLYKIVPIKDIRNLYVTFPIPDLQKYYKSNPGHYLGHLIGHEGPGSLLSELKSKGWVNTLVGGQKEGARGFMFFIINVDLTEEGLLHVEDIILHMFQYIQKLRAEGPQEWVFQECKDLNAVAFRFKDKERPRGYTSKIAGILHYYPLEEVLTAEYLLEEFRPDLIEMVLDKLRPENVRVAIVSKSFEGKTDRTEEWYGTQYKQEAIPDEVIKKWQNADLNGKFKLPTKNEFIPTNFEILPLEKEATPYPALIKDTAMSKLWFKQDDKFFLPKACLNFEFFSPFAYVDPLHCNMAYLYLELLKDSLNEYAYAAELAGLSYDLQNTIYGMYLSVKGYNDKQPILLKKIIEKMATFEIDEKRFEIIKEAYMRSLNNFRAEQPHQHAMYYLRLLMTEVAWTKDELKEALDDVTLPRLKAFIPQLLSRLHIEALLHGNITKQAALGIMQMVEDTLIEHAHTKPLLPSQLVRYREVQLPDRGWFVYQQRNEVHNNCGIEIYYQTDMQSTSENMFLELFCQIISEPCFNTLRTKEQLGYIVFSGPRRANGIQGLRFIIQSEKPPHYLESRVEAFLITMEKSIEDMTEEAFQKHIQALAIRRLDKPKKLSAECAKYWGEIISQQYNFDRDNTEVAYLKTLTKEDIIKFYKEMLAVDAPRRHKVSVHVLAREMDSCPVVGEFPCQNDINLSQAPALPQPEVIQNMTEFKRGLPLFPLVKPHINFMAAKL

[3] = THP-1 cell cytotoxicity, dose response, cytotoxicity control for non-replicating M. tuberculosis project (AID 489025); format: functional
Insulin-degrading enzyme [4] = target: T1, Insulin-degrading enzyme; assay: cellular IDE activation of Abeta substrate cleavage – fluorescence polarization, HEK cells, dose response (AID 588439); format: functional, cell-based
Jurkat = assay: SAR Analysis of small molecule inhibitors of T-cell specific antigen receptor-induced NF-kB activation in a Jurkat cell line using a luminescence assay - Set 2. [Related pubchem assays (depositor defined):AID435003, AID435012, AID465]; format: functional, cell-based; conditions: Homo sapiens
[5] = NIH3T3 cell viability loss – ATP luminescence, mouse fibroblasts, counter-screen, dose response (AID 2010); format: functional, cell-based;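 further: cells exposed to compound for about 90 hours before reading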
[6] = Counterscreen for AddAB inhibitors: absorbance-based bacterial cell-based high throughput dose response assay for inhibitors of bacterial viability. [Related pubchem assays (depositor defined):AID435030, AID449728, AID449731, AID488942, AID488955, AID488956]; format: functional
[7] = HEK-293T viability loss after treatment – luminescence, T-cell screen hits, cytotoxicity control for TCR NF-kB inhibitor project, dose response (AID 489026); format: functional, cell-based;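 further: cells exposed to compound about 14 hours before the viability readout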
cells = format: functional, cell-based
[8] = system: Streptococcus sp. 'group A'; assay: Streptococcus pyogenes SK(-)GAS viability under kanamycin – luminescence, BacTiterGlo, confirmation, counter-screen for streptokinase expression inhibitor project, dose response (AID 1900); format: functional, organism-based
Streptococcus = assay: GAS UMAA2166 growth inhibition – luminescence, BacTiterGlo, counter-screen for streptokinase expression inhibitor project, dose response (AID 1915); format: functional, organism-based;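 further: potency for reduction of bacterial viability or growth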
Large T antigen = Large T antigen (Simian virus 40, UniProt P03070); format: functional, Betapolyomavirus macacae;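 further: Confirmatory-stage PubChem screen for compounds that inhibit SV40 T antigen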
Chain of Large T antigen (P03070 whole entry): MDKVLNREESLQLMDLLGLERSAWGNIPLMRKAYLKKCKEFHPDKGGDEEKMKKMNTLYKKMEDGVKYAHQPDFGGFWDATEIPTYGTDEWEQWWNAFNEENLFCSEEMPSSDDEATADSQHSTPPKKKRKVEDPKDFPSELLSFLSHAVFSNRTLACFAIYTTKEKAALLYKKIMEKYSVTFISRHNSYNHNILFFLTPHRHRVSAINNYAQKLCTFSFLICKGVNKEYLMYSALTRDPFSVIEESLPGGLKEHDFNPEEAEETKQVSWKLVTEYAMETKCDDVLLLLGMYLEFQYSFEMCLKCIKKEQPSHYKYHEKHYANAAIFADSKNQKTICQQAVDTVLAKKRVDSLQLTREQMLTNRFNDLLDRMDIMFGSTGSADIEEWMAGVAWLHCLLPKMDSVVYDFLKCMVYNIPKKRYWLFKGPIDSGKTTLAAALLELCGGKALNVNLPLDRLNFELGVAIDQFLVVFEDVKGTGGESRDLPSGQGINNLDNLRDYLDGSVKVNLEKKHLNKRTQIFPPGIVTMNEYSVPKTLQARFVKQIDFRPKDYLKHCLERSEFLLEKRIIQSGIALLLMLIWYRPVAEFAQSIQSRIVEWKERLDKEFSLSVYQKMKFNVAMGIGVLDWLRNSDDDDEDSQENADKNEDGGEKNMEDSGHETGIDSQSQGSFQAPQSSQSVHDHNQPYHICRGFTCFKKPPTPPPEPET

Beta-galactosidase = Beta-galactosidase (Escherichia coli, UniProt Q8VNN2); assay: PubChem AID 485352; format: functional
Chain of Beta-galactosidase (Q8VNN2 whole entry): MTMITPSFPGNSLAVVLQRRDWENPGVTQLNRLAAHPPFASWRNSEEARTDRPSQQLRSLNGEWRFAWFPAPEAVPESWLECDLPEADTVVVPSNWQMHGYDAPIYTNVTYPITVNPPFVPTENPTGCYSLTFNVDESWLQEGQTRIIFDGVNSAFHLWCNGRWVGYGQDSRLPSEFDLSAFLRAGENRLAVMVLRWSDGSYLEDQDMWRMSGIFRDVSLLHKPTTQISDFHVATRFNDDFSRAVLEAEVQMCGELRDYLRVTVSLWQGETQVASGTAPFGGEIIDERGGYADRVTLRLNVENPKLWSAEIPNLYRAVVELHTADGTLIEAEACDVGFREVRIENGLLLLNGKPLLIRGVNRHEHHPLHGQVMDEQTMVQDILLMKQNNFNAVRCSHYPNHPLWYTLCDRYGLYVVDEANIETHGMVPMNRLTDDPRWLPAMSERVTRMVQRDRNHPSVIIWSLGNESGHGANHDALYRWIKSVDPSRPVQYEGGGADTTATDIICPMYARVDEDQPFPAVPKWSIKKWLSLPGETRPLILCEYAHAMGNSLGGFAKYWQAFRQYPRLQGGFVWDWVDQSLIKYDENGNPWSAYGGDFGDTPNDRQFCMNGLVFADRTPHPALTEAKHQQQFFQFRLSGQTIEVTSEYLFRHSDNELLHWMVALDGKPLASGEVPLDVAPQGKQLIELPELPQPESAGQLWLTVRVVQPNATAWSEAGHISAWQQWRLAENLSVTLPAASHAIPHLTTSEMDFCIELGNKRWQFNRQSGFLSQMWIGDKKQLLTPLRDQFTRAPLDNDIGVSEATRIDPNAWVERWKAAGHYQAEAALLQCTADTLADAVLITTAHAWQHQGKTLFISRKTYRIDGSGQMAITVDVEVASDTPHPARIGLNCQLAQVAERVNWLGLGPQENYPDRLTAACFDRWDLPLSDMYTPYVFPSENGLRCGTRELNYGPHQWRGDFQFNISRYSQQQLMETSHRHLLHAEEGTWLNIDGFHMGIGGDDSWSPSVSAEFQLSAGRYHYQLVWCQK

Structure (SMILES): CCOC(=O)c1c(C)[nH]c2c1-c1ccccc1C(=O)C2=O
- EC50 [1]: > 100 µM (active)

Structure (SMILES): CCOC(=O)C1=C(c2ccccc2)N=C(N)NC1c1ccc(OCc2ccc(Cl)cc2)c(OC)c1 (stereo not drawn)
- EC50 (Insulin-degrading enzyme [2]): 52.1 µM (inactive)
- CC50 [3]: 9.43 µM (active)
- EC50 (Insulin-degrading enzyme [4]): 42.5 µM (inactive)

Structure (SMILES): CC(=O)NC(c1ccc2ccccc2c1)c1ccc2cccnc2c1O (stereo not drawn)
- IC50 (Jurkat): 1.89 µM (active)
- EC50 [5]: 0.589 µM (active)
- IC50 [6]: > 118 µM (inactive)
- IC50 [7]: > 80 µM (inactive)
- EC50 (cells): 7.14 µM (active)

Structure (SMILES): O=[N+]([O-])c1c(NCCO)cc(Sc2nc3ccccc3s2)c2nonc12
- EC50 [8]: 2.73 µM (active)
- EC50 (Streptococcus): 3.39 µM (active)
- IC50 (Large T antigen): 21.2 µM (active)
- EC50 (Beta-galactosidase): > 40 µM (inactive)
